From patent publication US6020336A, “Indole and indazole compounds” (priority 1997, dated 2000)
Where a name gives a salt, the structure may show the parent alone.

Tests used:
saphenous vein of dogs = test: Contraction of the saphenous vein isolated from dog; settings: Canis lupus familiaris, dog saphenous vein rings
Method: (§1) The activity of the compounds of the invention has been evaluated in a pharmacological test that measures their potential for contracting the saphenous vein isolated from a dog or rabbit, as described by Humphrey et al. (Br. J. Pharmacol., 94, 1123, 1988).
(§2) The test are carried out on saphenous veins of dogs (10-25 kg) or of rabbits (2-3 kg) which have ben anaesthetised with pentobarbital (30 mg/kg i.v.). The saphenous veins are removed quickly and cut into rings. The rings are mounted between two hooks in vessels maintained at 37° C. containing physiological saline (composition in mM:NaCl 118.3; KCl 4.7; CaCl2 2.5; MgSO4 1.2; KH2 PO4 1.2; NaHCO3 25.0; Ca-EDTA 0.026 and glucose 11.1).
(§3) A mixture of 95% O2 --5% CO2 is bubbled through the physiological saline solution. The lower hook consists of the fixed point whilst the upper hook is connected to an isometric force sensor. The tissues are subjected to a base tension of 1.5 grammes (dog) and of 1 gramme (rabbit). The test pharmacological substances are prepared immediately prior to use; they are solubilised in water or in dimethyl sulphoxide.
(§4) After being mount, the preparations are left to rest for 60 minutes, rinsing operations being carried out every 30 minutes. The organ is then placed in the presence of phenoxybenzamine (5×10^-8 M) for 20 minutes. That agent is eliminated by a number of successive washing operations over the course of 45 minutes. After readjustment of the base tension, contraction is brought about by KCl (100 mM). After washing and return to the base line, contraction is induced by 5-hydroxytryptamine (10^-5 M).
(§5) After washing and return to the base line, a dose/response curve for the pharmacological substances is produced by the addition of cumulative doses (10^-9 to 10^-4 M).
(§6) The test enables the 50% effective concentration (EC50) of the compounds of the invention to be determined.
The EC50 is calculated in the following manner: the tension values are first converted into percentages relative to the maximum effect induced by KCl. […]

[1] = test system: saphenous vein of rabbits; test: Contraction of the saphenous vein isolated from rabbit; settings: Oryctolagus cuniculus, rabbit saphenous vein rings; for Emax: % relative to the maximum effect induced by KCl (100 mM), read-out: maximum response (contraction of the saphenous vein); for EC50: cumulative doses 10^-9 to 10^-4 M, 37° C., tension as % of KCl maximum
Method: as §1, §2, §3, §4, §5, §6
The EC50 is calculated in the following manner: the tension values are first converted into percentages relative to the maximum effect induced by KCl. The effective concentration 50% (ED50) is determined by non-linear regression according to the model of the law of mass action of Michaelis-Menten.

SMILES | Emax (saphenous vein of dogs; % relative to the maximum effect induced by KCl (100 mM), read-out: maximum response (contraction of the saphenous vein)) [%] | EC50 (saphenous vein of dogs; cumulative doses 10^-9 to 10^-4 M, 37° C., tension as % of KCl maximum) [µM] | Emax [1] [%] | EC50 [1] [µM] | Emax at 100 µM (saphenous vein of dogs; 100 μM, % relative to the maximum effect induced by KCl (100 mM), read-out: maximum contraction at a concentration of 100 μM) [%]
CN(C)CCn1ncc2ccc(-n3cnnc3)cc21 [Example 6, 1-(Dimethylaminoethyl)-6-([1,2,4]triazol-4-yl)indazole dihydrochloride] | 47 | 0.17 | 87 | 0.12 | 
COc1cncnc1N1CCN(CCCn2ccc3ccc(-n4cnnc4)cc32)CC1 [Example 5, 1-{3-[4-(5-Methoxypyrimidin-4-yl)piperazin-1-yl]propyl}-6-([1,2,4]-triazol-4-yl)indole dihydrochloride] |  |  | 75 | 0.3 | 6
